Patent US7473790B2 (Pfizer Inc., priority 2003, dated 2009)

Molecular target: T1, HCV polymerase (Hepatitis C virus genotype 1b, UniProt P26663)
T1 construct: 2.5 pmoles (0.15 μg) HCV polymerase protein in a final volume of 75 μL
Assay: HCV polymerase primer/template-directed transcription assay (32P-GTP incorporation, filter binding)
Assay type: biochemical
Details: for IC50: recombinant HCV polymerase, 30 minutes at 30° C., concentration giving 50% inhibition of polymerase-directed transcription, read-out: IC50; for inhibition at 20 µM: @ 20 uM compound, given where IC50 was impractical to calculate, read-out: percent inhibition
In short: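 Recombinant genotype 1b polymerase (30 nM) extended biotin-dG12 primer on poly(rC)300 template with 1 μM GTP plus α-32P-GTP, pH 7.2, 10 mM MgCl2, 30 min at 30° C, 1% DMSO final. Products captured on DE filters and counted. IC50 fitted from triplicate cpm, with a tight-binding correction applied below 200 nM.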

T1 sequence (P26663 2420-3010): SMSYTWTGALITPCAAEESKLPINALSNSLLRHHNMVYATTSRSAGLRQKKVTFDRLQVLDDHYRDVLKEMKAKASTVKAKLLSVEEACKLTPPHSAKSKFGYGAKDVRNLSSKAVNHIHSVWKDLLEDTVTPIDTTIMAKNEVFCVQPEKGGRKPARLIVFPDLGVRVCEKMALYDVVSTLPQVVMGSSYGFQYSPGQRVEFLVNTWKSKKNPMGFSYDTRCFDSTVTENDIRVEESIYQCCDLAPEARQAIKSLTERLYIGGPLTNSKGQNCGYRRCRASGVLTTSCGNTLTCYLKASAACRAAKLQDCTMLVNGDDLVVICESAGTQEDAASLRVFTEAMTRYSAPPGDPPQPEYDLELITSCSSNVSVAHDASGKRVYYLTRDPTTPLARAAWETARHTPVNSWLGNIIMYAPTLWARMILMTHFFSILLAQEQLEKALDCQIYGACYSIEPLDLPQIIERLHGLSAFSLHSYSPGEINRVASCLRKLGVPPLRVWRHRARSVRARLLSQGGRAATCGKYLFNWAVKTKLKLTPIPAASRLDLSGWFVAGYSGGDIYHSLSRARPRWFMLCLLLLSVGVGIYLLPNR

SMILES | IC50 | inhibition at 20 µM
N#CCC(=O)c1ccc(C#CC2(C3CCCC3)CC(=O)CC(=O)O2)s1 (stereo not shown) [E(2), 3-[5-(2-Cyclopentyl-4,6-dioxo-tetrahydro-pyran-2-ylethynyl)-thiophen-2-yl]-3-oxo-propionitrile] | 8.2 µM | –
N#CCc1cccc(C#CC2(C3CCCC3)CC(=O)CC(=O)O2)c1 (stereo not shown) [E(3), [3-(2-Cyclopentyl-4,6-dioxo-tetrahydro-pyran-2-ylethynyl)-phenyl]-acetonitrile] | 65 µM | –
Cc1cc(C#CCCC2(C3CCCC3)CC(=O)CC(=O)O2)c(C)cc1O (stereo not shown) [F(1), 6-Cyclopentyl-6-[4-(4-hydroxy-2,5-dimethyl-phenyl)-but-3-ynyl]-dihydro-pyran-2,4-dione] | 7.2 µM | –
NS(=O)(=O)c1cccc(C#CCCC2(C3CCCC3)CC(=O)CC(=O)O2)c1 (stereo not shown) [F(2), 3-[4-(2-Cyclopentyl-4,6-dioxo-tetrahydro-pyran-2-yl)-but-1-ynyl]-benzenesulfonamide] | 7.2 µM | –
CSc1ccccc1C#CCCC1(C2CCCC2)CC(=O)CC(=O)O1 (stereo not shown) [F(3), 6-Cyclopentyl-6-[4-(2-methylsulfanyl-phenyl)-but-3-ynyl]-dihydro-pyran-2,4-dione] | 8.4 µM | –
O=C1CC(=O)OC(CCC#Cc2ccccc2OC(F)(F)F)(C2CCCC2)C1 (stereo not shown) [F(4), 6-Cyclopentyl-6-[4-(2-trifluoromethoxy-phenyl)-but-3-ynyl]-dihydro-pyran-2,4-dione] | 5.8 µM | –
O=C1CC(=O)OC(CCC#Cc2ccc(F)cc2)(C2CCCC2)C1 (stereo not shown) [F(5), 6-Cyclopentyl-6-[4-(4-fluoro-phenyl)-but-3-ynyl]-dihydro-pyran-2,4-dione] | 25 µM | –
Cc1ccc(C#CCCC2(C3CCCC3)CC(=O)CC(=O)O2)cc1 (stereo not shown) [F(6), 6-Cyclopentyl-6-(4-p-tolyl-but-3-ynyl)-dihydro-pyran-2,4-dione] | 83 µM | –
O=C1OC(CCC#Cc2cccc(O)c2)(C2CCCC2)CC(O)=C1Sc1nccs1 (stereo not shown) [F(7), 6-Cyclopentyl-4-hydroxy-6-[4-(3-hydroxy-phenyl)-but-3-ynyl]-3-(thiazol-2-ylsulfanyl)-5,6-dihydro-pyran-2-one] | 7.5 µM | –
COc1ccc(CCC2(C3CCCC3)CC(OCc3cccnc3)=CC(=O)O2)cc1Cl (stereo not shown) [G(1), 6-[2-(3-chloro-4-methoxyphenyl)ethyl]-6-cyclopentyl-4-(pyridin-3-ylmethoxy)-5,6-dihydro-2H-pyran-2-one] | – | 16%
COc1ccc(CCC2(C3CCCC3)CC(OCc3ccccn3)=CC(=O)O2)cc1Cl (stereo not shown) [G(2), 6-[2-(3-Chloro-4-methoxy-phenyl)-ethyl]-6-cyclopentyl-4-(pyridin-2-ylmethoxy)-5,6-dihydro-pyran-2-one] | – | 3%
COC1=CC(=O)OC(CCc2ccc(OC)c(Cl)c2)(C2CCCC2)C1 (stereo not shown) [G(3), 6-[2-(3-Chloro-4-methoxy-phenyl)-ethyl]-6-cyclopentyl-4-methoxy-5,6-dihydro-pyran-2-one] | 29 µM | –
O=C1CC(=O)OC(CCNC(=O)CCc2ccco2)(C2CCCC2)C1 (stereo not shown) [H(1), N-[2-(2-Cyclopentyl-4,6-dioxo-tetrahydro-pyran-2-yl)-ethyl]-3-furan-2-yl-propionamide] | 1 µM | –
O=C1CC(=O)OC(CCNC(=O)c2ccco2)(C2CCCC2)C1 (stereo not shown) [H(2), Furan-2-carboxylic acid [2-(2-cyclopentyl-4,6-dioxo-tetrahydro-pyran-2-yl)-ethyl]-amide] | 51 µM | –
O=C1CC(=O)OC(CCCNC(=O)CCc2ccco2)(C2CCCC2)C1 (stereo not shown) [H(3), N-[3-(2-Cyclopentyl-4,6-dioxo-tetrahydro-pyran-2-yl)-propyl]-3-furan-2-yl-propionamide] | 1.2 µM | –
Cc1cc(C)n2nc(SC3=C(O)CC(CCNC(=O)CCc4ccco4)(C4CCCC4)OC3=O)nc2n1 (stereo not shown) [H(4), N-{2-[2-Cyclopentyl-5-(5,7-dimethyl-[1,2,4]triazolo[1,5-a]pyrimidin-2-ylsulfanyl)-4-hydroxy-6-oxo-3,6-dihydro-2H-pyran-2-yl]-ethyl}-3-furan-2-yl-propionamide] | 60 µM | –
